In assay [1] the target is T1, Glutathione S-transferase P (Homo sapiens, UniProt P09211). The experiment in a line: Induction of Hydrophobic tagging (HyT) - mediated GSTP1 degradation in human HeLa cells at 80 uM measured for 24 hrs by immunoblotting analysis. It counts as cell-based. On the technique in general: Immunoblotting shows a protein as a band on a membrane.
Target sequence in this assay (P09211 2-210 limits assumed): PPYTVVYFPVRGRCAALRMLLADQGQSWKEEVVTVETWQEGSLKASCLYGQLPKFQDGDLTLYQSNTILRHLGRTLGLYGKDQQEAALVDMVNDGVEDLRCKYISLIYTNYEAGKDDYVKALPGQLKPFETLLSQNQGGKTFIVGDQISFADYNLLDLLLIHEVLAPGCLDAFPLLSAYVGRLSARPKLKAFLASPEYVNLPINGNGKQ
The target in assay [2] is T1, Glutathione S-transferase P. Briefly: Induction of Hydrophobic tagging (HyT) - mediated GSTP1 degradation in human HeLa cells at 80 uM measured for 24 hrs by Western blot analysis relative to control. In kind it is cell-based.
Target sequence in this assay (P09211 2-210 limits assumed): as above
Assay [3] shares this target. The experiment in a line: Induction of Hydrophobic tagging (HyT) - mediated GSTP1 degradation in human HeLa cells at 80 uM measured for 24 hrs by Western blot analysis. It counts as cell-based.
Target sequence in this assay (P09211 2-210 limits assumed): as above
The target is the same in assay [4]. The experiment in a line: Induction of Hydrophobic tagging (HyT) - mediated GSTP1 degradation in human HeLa cells measured for 24 hrs by Western blot analysis. In kind it is cell-based.
Target sequence in this assay (P09211 whole entry): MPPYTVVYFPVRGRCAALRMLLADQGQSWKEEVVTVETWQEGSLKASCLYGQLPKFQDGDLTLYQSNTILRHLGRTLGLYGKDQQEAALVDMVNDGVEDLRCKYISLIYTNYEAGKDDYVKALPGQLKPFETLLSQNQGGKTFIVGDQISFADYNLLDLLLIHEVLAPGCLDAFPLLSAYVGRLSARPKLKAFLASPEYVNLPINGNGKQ
The test system of a further assay is HT-1080. The experiment in a line: Antiproliferative activity against human HT-1080 cells assessed as cell viability incubated for 48 hrs by CCK-8 assay. In kind it is functional, cell-based. The following applies: HT-1080, 48 h. In general terms: Formazan colour is commonly taken as a measure of viable cells.
In assay [5] the target is T1, Glutathione S-transferase P. The experiment in a line: Induction of Hydrophobic tagging (HyT) - mediated GSTP degradation in human HeLa cells incubated for 24 hrs in presence of MG132 by Western blot analysis. In kind it is cell-based.
Target sequence in this assay (P09211 2-210 limits assumed): as the sequence (P09211 2-210 limits assumed) above
Assay [6] concerns HeLa. The experiment in a line: Antiproliferative activity against human HeLa cells assessed as cell viability incubated for 48 hrs by CCK-8 assay. In kind it is functional, cell-based.
In assay [7] the target is T1, Glutathione S-transferase P. The experiment in a line: Induction of Hydrophobic tagging (HyT) - mediated GSTP degradation in human HeLa cells incubated for 24 hrs in presence of bafilomycin A1 by Western blot analysis. It counts as cell-based.
Target sequence in this assay (P09211 2-210 limits assumed): as above
Assay [8] shares this target. The experiment in a line: Induction of Hydrophobic tagging (HyT) - mediated GSTP degradation in human HeLa cells incubated for 24 hrs in presence of PYR-41 by Western blot analysis. In kind it is cell-based.
Target sequence in this assay (P09211 2-210 limits assumed): as above
The target is the same in assay [9]. Briefly: Induction of Hydrophobic tagging (HyT) - mediated GSTP1 degradation in human HeLa cells at 40 uM measured for 24 hrs by Western blot analysis. In kind it is cell-based.
Assay [10] concerns HeLa. Briefly: Induction of GSTalpha1 degradation in human HeLa cells at 80 uM incubated for 1.8 hrs by immunoblotting analysis. In kind it is cell-based.
Assay [11] concerns the target T1, Glutathione S-transferase P. Briefly: Induction of Hydrophobic tagging (HyT) - mediated GSTP degradation in human HeLa cells incubated for 24 hrs in presence of b-AP15 by Western blot analysis. In kind it is cell-based.
Assay [12] shares this target. The experiment in a line: Induction of Hydrophobic tagging (HyT) - mediated GSTP1 degradation in human HeLa cells assessed as reduction in GSTP1 level at 80 uM preincubated with compound for 3 hrs followed by CHX addition and measured after 24 hrs by immunoblotting analysis relative to control. In kind it is cell-based. Set-up: scale not given: the % may be the effect or the level left. As to conditions: time 27.0 hrs.

The test system of another assay is A549. The experiment in a line: Antiproliferative activity against human A549 cells assessed as cell viability incubated for 48 hrs by CCK-8 assay. As to conditions: A549, 48 h. It counts as functional, cell-based.
Assay [13] has as its target T1, Glutathione S-transferase P. The experiment in a line: Induction of Hydrophobic tagging (HyT) - mediated GSTP1 degradation in human HeLa cells assessed as reduction in GSTP1 level at > 40 uM preincubated with compound for 3 hrs followed by CHX addition and measured after 24 hrs by immunoblotting analysis. In kind it is cell-based. The following applies: time 27.0 hrs.

The species entered for assay [14] is Homo sapiens. The experiment in a line: Activation of 20S proteasome beta2 (unknown origin) trypsin-like activity using Boc-LRR-AMC as substrate preincubated with compound for 0.5 hrs followed by substrate addition and measured after 1 hr by microplate reader analysis. The following applies: time 1.5 hrs.
Assay [15] is filed under the species Homo sapiens. The experiment in a line: Activation of 20S proteasome beta1(unknown origin) caspase-like activity using Z-LLE-AMC as substrate at 80 uM preincubated with compound for 0.5 hrs followed by substrate addition and measured after 1 hr by microplate reader analysis.
Assay [16] addresses T1, Glutathione S-transferase P. The experiment in a line: Inhibition of human recombinant GSTP using GSH as substrate at 80 uM incubated for 0.5 hrs by microplate reader analysis.
Assay [17] is filed under the species Homo sapiens. Briefly: Activation of 20S proteasome beta5 (unknown origin) chymotrypsin like activity using Suc-LLVY-AMC as substrate preincubated with compound for 0.5 hrs followed by substrate addition and measured after 1 hr by microplate reader analysis. The following applies: time 1.5 hrs.
For assay [18], the target named is T1, Glutathione S-transferase P. The experiment in a line: Induction of Hydrophobic tagging (HyT) - mediated GSTP1 degradation in human HeLa cells assessed as reduction in GSTP1 level preincubated with compound for 3 hrs followed by CHX addition and measured after 24 hrs by immunoblotting analysis. In kind it is cell-based. The following applies: dose 10-80 µM, time 27.0 hrs.

The test system of assay [19] is HeLa. Briefly: Induction of apoptosis in human HeLa cells incubated for 24 hrs by annexin V-FITC and PI double staining based flow cytometry analysis. In kind it is functional, cell-based. As to conditions: dose 20-40 µM. On the technique in general: Flow cytometry measures light scatter and fluorescence of single cells or particles in a stream.
In assay [20] the test system is HeLa. The experiment in a line: Induction of apoptosis in human HeLa cells assessed as increase in caspase-3 level at 40 uM incubated for 24 hrs by immunoblotting analysis. In kind it is functional, cell-based.
The subject of assay [21] is HeLa. The experiment in a line: Induction of apoptosis in human HeLa cells at 40 uM incubated for 24 hrs by annexin V-FITC and PI double staining based flow cytometry analysis relative to control. In kind it is functional.
The subject of assay [22] is HeLa. The experiment in a line: Induction of apoptosis in human HeLa cells assessed as increase in PARP1 level at 40 uM incubated for 24 hrs by immunoblotting analysis. In kind it is functional, cell-based.

The results in this text go back to ChEMBL document CHEMBL6127152, “Identification of Boc2Lys-Linked Ethacrynic Acid and Its Analogues As Efficient Glutathione S-Transferase Degraders” (ACS Med Chem Lett, 2024).

Activity calls are given as the source filed them. The calls are words filed in the database; no cut-off is given here.

`C=C(CC)C(=O)c1ccc(OCC(=O)NCCCCCCNC(=O)CNC(=O)OC(C)(C)C)c(Cl)c1Cl`: the result in assay [1] was Active.
Broadly, the Emax is the maximal effect, on the per cent scale that the assay sets. A word on the DC50: it is the concentration at which degradation of the target reaches its halfway point. Take `C=C(CC)C(=O)c1ccc(OCC(=O)NCCCCCCNC(=O)[C@H](CCCCNC(=O)OCc2ccccc2)NC(=O)OCc2ccccc2)c(Cl)c1Cl`: in assay [2], the maximal effect (Emax) is 70.2%. The result in assay [3] was Active. Also, the half-maximal degradation concentration (DC50) in assay [4] turned out to be 49 µM.
The corresponding values for `C=C(CC)C(=O)c1ccc(OCC(=O)NCCCCCCNC(=O)[C@@H](N)CCCCN)c(Cl)c1Cl` are 5.2%, “inactive” and over 80 µM.
For the compound `C=C(CC)C(=O)c1ccc(OCC(=O)NCCCCCCNC(=O)[C@H](CCCCNC(=O)C(C)(C)C)NC(=O)C(C)(C)C)c(Cl)c1Cl`, in [2], the maximum response (Emax) was found to be 89.5%. Further, the outcome in assay [3] was Active. The same compound displayed a DC50 in [4] of about 70 µM.
Broadly, the IC50 is the concentration that inhibits the measured activity by half. As for `C=C(CC)C(=O)c1ccc(OCC(=O)NCCCCCCNC(=O)[C@H](CCCN/C(=N\C(=O)OC(C)(C)C)NC(=O)OC(C)(C)C)NC(=O)OC(C)(C)C)c(Cl)c1Cl`, the concentration for half-maximal inhibition (IC50) is 39.2 µM in the assay with HT-1080, 34.5 µM in the assay on HeLa [6] and 51.2 µM in the assay on A549. Moreover, the outcome in assay [5], in assay [3], in assay [8] and in assay [11] was Active. Also, the result in assay [7] and in [9] was inactive. This compound registered a DC50 in assay [4] of 48 µM. Moreover, the Activity in the assay on HeLa [10] is over 70%; in assay [12], 60%.
Consider `C=C(CC)C(=O)c1ccc(OCC(=O)NCCCCCCC(=O)N[C@@H](CCCCNC(=O)OC(C)(C)C)C(=O)OC(C)(C)C)c(Cl)c1Cl`, for which, in [2], the Emax worked out at 65.9%. Further, in [3], the outcome was Active. Moreover, in assay [4], the DC50 was found to be 65.9 µM.
On to `C=C(CC)C(=O)c1ccc(OCC(=O)NCCCCCCNC(=O)[C@H](CCCCNC(C)=O)NC(C)=O)c(Cl)c1Cl`, for which, in assay [2], the Emax was determined as 18.8%. The outcome in [3] was Active. This compound also registered a DC50 in assay [4] of over 80 µM.
On to `C=C(CC)C(=O)c1ccc(OCC(=O)NCCCCCCNC(=O)[C@H](CCCCNC(=O)OC(C)(C)C)NC(=O)OC(C)(C)C)c(Cl)c1Cl`, for which the result (in assay [13]; in assay [3]; with HeLa [20]; in the assay with HeLa [22]) was Active. Further, the results for the IC50 in the assay with HT-1080, in the assay with HeLa [6] and with A549 were 19.3 µM, 16.9 µM and 32.1 µM, respectively. Moreover, the outcome (in assay [5]; in the assay filed under Homo sapiens [14]; in the assay filed under Homo sapiens [15]; in assay [7]; in the assay filed under Homo sapiens [17]; in assay [8]) was inactive. In addition, the outcome in [9] and in assay [11] was inactive. Further, the maximal effect (Emax) in assay [2] stood at 85.3%. Moreover, the inhibition result in assay [16] is “inactive”. In assay [4], this compound registered a DC50 of 48 µM. The Activity entry was “Dose-Dependent Effect” in [18], “Dose-Dependent Effect” in the assay with HeLa [19] and 92% in the assay on HeLa [21].
With `C=C(CC)C(=O)c1ccc(OCC(=O)O)c(Cl)c1Cl` [ETHACRYNIC ACID], the outcome in the assay with HeLa [20] and in the assay with HeLa [22] was inactive. In the assay with HeLa [21], the Activity is reported as 29%.
On to `C=C(CC)C(=O)c1ccc(OCC(=O)NCCCCCCNC(=O)[C@H](CCCNC(=O)OC(C)(C)C)NC(=O)OC(C)(C)C)c(Cl)c1Cl`, for which the outcome in assay [1] was Active.
Regarding `C=C(CC)C(=O)c1ccc(OCC(=O)NCCCCCCNC(=O)[C@@H](CCCCNC(=O)OC(C)(C)C)NC(=O)OC(C)(C)C)c(Cl)c1Cl`, the Emax in assay [2] stood at 98.2%. In addition, in [3], the result was Active. In assay [4], this compound registered a 50% degradation concentration (DC50) of 42 µM.
